Data on one compound can be found in ChEMBL document CHEMBL4673346, “Discovery of a benzimidazole series as the first highly potent and selective ACSL1 inhibitors” (Bioorg Med Chem Lett, 2021).

The target in data set [1] is Fatty acid CoA ligase Acsl3 (Homo sapiens, UniProt O95573). Put plainly: Inhibition of recombinant human ACSL3 assessed as reduction in […] prodution incubated for 90 mins in presence of Coenzyme A, ATP and MgCl2 by MALDI-TOF MS analysis.
A short description of data set [2]: AUC in rat at 0.5 mg/kg, iv. The data set is classed as ADME, organism-based. Set-up: dose 0.5 mg/kg. The note with it: in vivo.
Data set [3] can be described thus: Total clearance in rat at 0.5 mg/kg, iv. Particulars: in vivo. The data set is classed as ADME, organism-based.
Data set [4] is described as follows: AUC in rat at 1 mg/kg, po. Further details: dose 1 mg/kg. In kind it is ADME, organism-based. Particulars: in vivo.
Data set [5] deals with Long-chain-fatty-acid--CoA ligase 4 (Homo sapiens, UniProt O60488). Put plainly: Inhibition of recombinant human ACSL4 assessed as reduction in […] prodution incubated for 120 mins in presence of Coenzyme A, ATP and MgCl2 by MALDI-TOF MS analysis.
Sequence of Long-chain-fatty-acid--CoA ligase 4 (O60488 whole entry): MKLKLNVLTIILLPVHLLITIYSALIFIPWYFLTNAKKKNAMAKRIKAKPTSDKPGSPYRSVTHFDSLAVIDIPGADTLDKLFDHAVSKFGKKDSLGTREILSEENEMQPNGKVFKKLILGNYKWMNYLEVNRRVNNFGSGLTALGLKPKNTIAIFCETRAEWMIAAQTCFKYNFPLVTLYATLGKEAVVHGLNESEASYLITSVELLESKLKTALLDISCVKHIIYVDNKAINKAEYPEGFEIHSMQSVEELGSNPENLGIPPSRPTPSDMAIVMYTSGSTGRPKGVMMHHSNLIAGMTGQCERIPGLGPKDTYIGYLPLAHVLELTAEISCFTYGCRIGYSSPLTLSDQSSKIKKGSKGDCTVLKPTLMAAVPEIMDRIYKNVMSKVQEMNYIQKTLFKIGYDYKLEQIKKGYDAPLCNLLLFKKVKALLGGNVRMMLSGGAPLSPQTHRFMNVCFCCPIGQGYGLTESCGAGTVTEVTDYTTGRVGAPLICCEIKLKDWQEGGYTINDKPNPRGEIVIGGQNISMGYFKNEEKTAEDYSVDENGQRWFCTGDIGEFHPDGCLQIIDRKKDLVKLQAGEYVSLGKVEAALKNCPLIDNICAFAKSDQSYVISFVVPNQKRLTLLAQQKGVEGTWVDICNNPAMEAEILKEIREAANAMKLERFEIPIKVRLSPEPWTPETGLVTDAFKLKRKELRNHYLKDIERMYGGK
Data set [6] concerns Mus musculus. Put plainly: In vivo inhibition of ACSL1 in mouse assessed as reduction in acyl-coA production in liver administered orally using oleic acid as substrate and measured after 17 hrs. The data set is classed as functional, organism-based.
The nature of data set [7]: Metabolic stability in human liver microsomes assessed as compound remaining after 30 mins. The data set is classed as ADME, Microsome. The note with it: read-out: Stabilty. In general terms: Microsomes from liver hold many membrane-bound enzymes, among them those of drug oxidation.
Data set [8] addresses Cytochrome P450 3A4 (Homo sapiens, UniProt P08684). Put plainly: Inhibition of CYP3A4 (unknown origin). The data set is classed as ADME.
Data set [9] relates to Mus musculus. Put plainly: In vivo inhibition of ACSL1 in mouse assessed as reduction in acyl-coA production in liver administered orally using palmitoleic acid as substrate and measured after 17 hrs. The note with it: dose 0.3-1 mg/kg. The data set is classed as functional, organism-based.
Data set [10] can be described thus: Half life in rat at 0.5 mg/kg, iv. The data set is classed as ADME, organism-based. Particulars: in vivo.
The nature of data set [11]: Metabolic stability in rat liver microsomes assessed as compound remaining after 30 mins. In kind it is ADME, Microsome. The note with it: read-out: Stabilty.
Data set [12] in a line: Metabolic stability in mouse liver microsomes assessed as compound remaining after 30 mins. The note with it: read-out: Stabilty. The data set is classed as ADME, Microsome.
Data set [13] in a line: Oral bioavailability in rat at 1 mg/kg. The data set is classed as ADME, organism-based. The note with it: in vivo.
The target in data set [14] is T1, Long-chain-fatty-acid--CoA ligase 1 (Homo sapiens, UniProt P33121).
T1 sequence (P33121 whole entry): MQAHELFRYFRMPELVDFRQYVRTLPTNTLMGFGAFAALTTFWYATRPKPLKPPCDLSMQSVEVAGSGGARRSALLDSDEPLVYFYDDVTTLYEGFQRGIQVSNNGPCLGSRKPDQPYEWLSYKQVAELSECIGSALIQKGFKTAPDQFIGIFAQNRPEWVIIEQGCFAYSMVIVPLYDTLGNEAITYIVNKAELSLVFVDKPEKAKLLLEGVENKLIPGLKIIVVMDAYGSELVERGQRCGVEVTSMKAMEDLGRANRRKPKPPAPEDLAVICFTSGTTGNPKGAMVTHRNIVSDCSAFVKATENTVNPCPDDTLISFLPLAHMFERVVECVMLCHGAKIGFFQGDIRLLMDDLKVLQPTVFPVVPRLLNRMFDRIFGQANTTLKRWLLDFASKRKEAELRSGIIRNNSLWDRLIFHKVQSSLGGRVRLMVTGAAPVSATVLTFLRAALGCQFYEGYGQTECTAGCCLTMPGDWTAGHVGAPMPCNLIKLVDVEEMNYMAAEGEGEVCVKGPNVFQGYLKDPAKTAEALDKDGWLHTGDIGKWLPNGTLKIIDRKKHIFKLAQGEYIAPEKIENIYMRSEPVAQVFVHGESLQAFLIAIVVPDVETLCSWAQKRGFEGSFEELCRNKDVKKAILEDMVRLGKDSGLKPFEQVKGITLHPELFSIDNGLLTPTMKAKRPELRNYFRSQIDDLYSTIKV
Put plainly: Inhibition of recombinant human ACSL1 assessed as reduction in […] prodution incubated for 90 mins in presence of Coenzyme A, ATP and MgCl2 by MALDI-TOF MS analysis.

Data set [15] concerns the target Cytochrome P450 2D6 (Homo sapiens, UniProt P10635). Put plainly: Inhibition of CYP2D6 (unknown origin). In kind it is ADME.
A short description of data set [16]: Inhibition of insulin/isobutyl-1-methylxanthin/dexamethasone-induced adipocytes differentiation in mouse 3T3-L1 cells by measuring 14C-triglyceride levels incubated for 1 hrs followed by oleic acid addition and measured after 10 mins by microbeta scintillation counting method. In kind it is functional. The note with it: 3T3-L1, 1.167 h, time 70 min.
Data set [17] concerns the target T2, Long-chain-fatty-acid--CoA ligase 5 (Homo sapiens, UniProt Q9ULC5).
T2 sequence (Q9ULC5 whole entry): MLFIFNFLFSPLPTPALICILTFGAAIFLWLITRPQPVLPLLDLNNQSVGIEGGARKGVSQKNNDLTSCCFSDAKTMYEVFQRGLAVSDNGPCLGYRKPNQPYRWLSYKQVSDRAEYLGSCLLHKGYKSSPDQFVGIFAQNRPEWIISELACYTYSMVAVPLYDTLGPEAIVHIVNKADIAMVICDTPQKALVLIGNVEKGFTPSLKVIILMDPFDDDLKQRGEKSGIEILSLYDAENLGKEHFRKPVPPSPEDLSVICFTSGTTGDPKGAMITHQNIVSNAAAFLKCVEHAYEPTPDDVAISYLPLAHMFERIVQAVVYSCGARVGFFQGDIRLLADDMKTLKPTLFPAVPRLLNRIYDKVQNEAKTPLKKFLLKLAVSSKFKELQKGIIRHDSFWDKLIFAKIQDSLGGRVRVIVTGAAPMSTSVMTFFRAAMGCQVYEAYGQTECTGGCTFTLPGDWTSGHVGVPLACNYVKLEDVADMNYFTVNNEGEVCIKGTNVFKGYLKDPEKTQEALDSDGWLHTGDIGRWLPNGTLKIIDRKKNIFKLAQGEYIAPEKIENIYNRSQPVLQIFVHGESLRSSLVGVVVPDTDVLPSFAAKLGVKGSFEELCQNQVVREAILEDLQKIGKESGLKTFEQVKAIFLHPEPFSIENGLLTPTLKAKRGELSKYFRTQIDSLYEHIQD
Put plainly: Inhibition of recombinant human ACSL5 assessed as reduction in […] prodution incubated for 90 mins in presence of Coenzyme A, ATP and MgCl2 by MALDI-TOF MS analysis.

pIC50: −log10 of the molar value. A value given as a limit tells only on which side of the number the result lay.

Sequence of Cytochrome P450 3A4 (P08684 whole entry): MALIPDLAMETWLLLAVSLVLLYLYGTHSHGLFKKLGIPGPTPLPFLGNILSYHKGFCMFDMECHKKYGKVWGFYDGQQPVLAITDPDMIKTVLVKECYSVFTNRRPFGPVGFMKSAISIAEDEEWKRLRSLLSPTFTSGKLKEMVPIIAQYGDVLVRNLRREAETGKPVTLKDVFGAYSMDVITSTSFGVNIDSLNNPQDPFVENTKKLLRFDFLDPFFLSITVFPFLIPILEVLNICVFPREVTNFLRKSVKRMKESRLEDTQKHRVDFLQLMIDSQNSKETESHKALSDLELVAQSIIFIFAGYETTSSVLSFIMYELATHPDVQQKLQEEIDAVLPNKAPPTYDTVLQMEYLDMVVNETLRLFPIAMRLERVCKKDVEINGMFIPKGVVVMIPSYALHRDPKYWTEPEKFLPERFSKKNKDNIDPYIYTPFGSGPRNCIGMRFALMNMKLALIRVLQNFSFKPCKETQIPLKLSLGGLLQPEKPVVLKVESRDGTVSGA
Sequence of Fatty acid CoA ligase Acsl3 (O95573 whole entry): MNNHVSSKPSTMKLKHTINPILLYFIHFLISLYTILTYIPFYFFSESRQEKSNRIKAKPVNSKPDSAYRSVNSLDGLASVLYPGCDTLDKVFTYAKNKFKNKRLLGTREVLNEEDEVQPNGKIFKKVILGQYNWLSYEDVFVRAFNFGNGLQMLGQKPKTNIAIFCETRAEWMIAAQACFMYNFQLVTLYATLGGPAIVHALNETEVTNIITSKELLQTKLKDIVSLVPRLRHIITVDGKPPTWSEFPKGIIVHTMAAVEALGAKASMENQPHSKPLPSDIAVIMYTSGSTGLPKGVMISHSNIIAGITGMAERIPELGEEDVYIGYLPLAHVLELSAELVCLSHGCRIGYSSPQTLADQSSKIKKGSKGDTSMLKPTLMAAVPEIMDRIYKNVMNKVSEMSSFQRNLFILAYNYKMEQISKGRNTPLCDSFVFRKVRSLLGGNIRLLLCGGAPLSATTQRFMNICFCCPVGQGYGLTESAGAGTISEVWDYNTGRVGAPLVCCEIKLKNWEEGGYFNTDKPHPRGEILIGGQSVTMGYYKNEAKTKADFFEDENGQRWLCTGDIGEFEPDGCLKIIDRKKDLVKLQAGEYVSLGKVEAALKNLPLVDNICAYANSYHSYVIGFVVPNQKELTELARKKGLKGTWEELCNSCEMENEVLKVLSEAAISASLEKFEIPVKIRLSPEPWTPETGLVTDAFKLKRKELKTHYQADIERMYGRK
Sequence of Cytochrome P450 2D6 (P10635 whole entry): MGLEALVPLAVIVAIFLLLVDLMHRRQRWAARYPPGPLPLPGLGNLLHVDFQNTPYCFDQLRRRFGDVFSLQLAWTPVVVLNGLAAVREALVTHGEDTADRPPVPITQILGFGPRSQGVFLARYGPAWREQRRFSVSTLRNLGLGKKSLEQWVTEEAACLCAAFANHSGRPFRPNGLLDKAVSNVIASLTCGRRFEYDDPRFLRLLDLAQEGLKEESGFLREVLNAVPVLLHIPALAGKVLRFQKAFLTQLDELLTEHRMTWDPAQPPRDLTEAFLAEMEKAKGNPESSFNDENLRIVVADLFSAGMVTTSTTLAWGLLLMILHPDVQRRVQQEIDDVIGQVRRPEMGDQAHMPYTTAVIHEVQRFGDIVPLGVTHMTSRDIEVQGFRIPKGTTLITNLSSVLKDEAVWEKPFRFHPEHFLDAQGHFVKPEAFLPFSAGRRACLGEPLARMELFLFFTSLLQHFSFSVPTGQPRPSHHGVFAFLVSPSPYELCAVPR

As to `Cc1cccc(Cc2nc3cc(O[C@H]4CC[C@@H](C(=O)O)CC4)ccc3n2C)c1`, the pIC50 (as a rule, the IC50 on a negative log10 scale, so that one unit is a factor of ten) was less than 3.70 in data set [1]; less than 3.70 in data set [5]; less than 4.70 in data set [8]; 7.38 in [14]; less than 4.70 in data set [15]; less than 3.70 in data set [17]. Also, the AUC (usually the area under the concentration-time curve, a measure of exposure) in data set [2] was determined as 4970 ng·h/mL; in data set [4] it was 11800 ng·h/mL. In addition, the clearance (commonly a measure of how efficiently the substance is removed, as volume per time) in data set [3] was found to be 1.75 mL/min/kg. For the same compound, the inhibition entry in data set [6] and in data set [9] was “Dose-dependent effect” in each case. The values for the remaining at 0.5 h in [7], in [11] and in data set [12] were 96%, 93% and 99%, respectively. For the same compound, the half-life (in general, how long it takes for the measured level to halve) in data set [10] was 2.8 h. Also, the bioavailability in [13] came to 119%. The IC30 – broadly, the concentration at which the effect reaches the 30% level – in [16] came to 0.039 µM.
